Results: ChEMBL document CHEMBL5113452, “Synthesis and biological evaluation of hybrids from optically active ring-opened 3-N-butylphthalide derivatives and 4-fluro-edaravone as potential anti-acute ischemic stroke agents” (Bioorg Med Chem, 2022)
Activity calls are given as the source filed them. The rule behind the calls is not given here.

Key:
Rattus norvegicus [1] = experiment: Neuroprotective activity against transient middle cerebral artery occlusion induced ischemia stroke Sprague-Dawley rat model assessed as increase in neuro-fucntional score at 10 mg/kg, iv and measured after 24 hrs by longa's method; assay type: functional, organism-based
[2] = Toxicity in transient middle cerebral artery occlusion induced ischemia stroke Sprague-Dawley rat model assessed as change in body weight at 10 mg/kg, iv and measured after 24 hrs; assay type: organism-based; settings: in vivo
Rattus norvegicus [3] = experiment: Neuroprotective activity against transient middle cerebral artery occlusion induced cerebral infraction Sprague-Dawley rat model assessed as decrease in cerebral infraction volume at 10 mg/kg, iv and measured after 24 hrs by TTC staining based assay; assay type: functional; design: scale not given: the % may be the effect or the level left
Rattus norvegicus [4] = experiment: Neuroprotective activity against transient middle cerebral artery occlusion induced cerebral infraction Sprague-Dawley rat model assessed as decrease in brain edema at 10 mg/kg, iv and measured after 24 hrs; assay type: functional
Rattus norvegicus [5] = experiment: Neuroprotective activity against transient middle cerebral artery occlusion induced cerebral ischemia Sprague-Dawley rat model assessed as decrease in infract volume at 70 mg/kg, po and measured after 24 hrs by TTC staining based assay; assay type: functional; design: scale not given: the % may be the effect or the level left
Rattus norvegicus [6] = experiment: Neuroprotective activity against transient middle cerebral artery occlusion induced cerebral ischemia Sprague-Dawley rat model assessed as decrease in infract volume at 140 mg/kg, po and measured after 24 hrs by TTC staining based assay; assay type: functional; design: scale not given: the % may be the effect or the level left
Rattus norvegicus [7] = experiment: Neuroprotective activity against transient middle cerebral artery occlusion induced ischemia stroke Sprague-Dawley rat model assessed as increase in neuro-fucntional score at 4.48 mg/kg, iv and measured after 24 hrs in presence of Eda by longa's method; assay type: functional, organism-based
[8] = Toxicity in transient middle cerebral artery occlusion induced ischemia stroke Sprague-Dawley rat model assessed as change in body weight at 4.48 mg/kg, iv and measured after 24 hrs in presence of EDA; assay type: organism-based; settings: in vivo
Rattus norvegicus [9] = experiment: Neuroprotective activity against transient middle cerebral artery occlusion induced cerebral infraction Sprague-Dawley rat model assessed as decrease in cerebral infraction volume at 4.48 mg/kg, iv and measured after 24 hrs in presence of EDA by TTC staining based assay; assay type: functional; design: scale not given: the % may be the effect or the level left
Rattus norvegicus [10] = experiment: Neuroprotective activity against transient middle cerebral artery occlusion induced cerebral infraction Sprague-Dawley rat model assessed as decrease in brain edema at 4.48 mg/kg, iv and measured after 24 hrs in presence of EDA; assay type: functional, organism-based
[11] = Elimination rate constant in Sprague-Dawley rat plasma at 4.48 mg/kg, iv and measured upto 24 hrs by LC-MS/MS analysis; assay type: ADME, organism-based
[12] = Half life in Sprague-Dawley rat plasma at 4.48 mg/kg, iv and measured upto 24 hrs by LC-MS/MS analysis; assay type: ADME, organism-based
[13] = Cmax in Sprague-Dawley rat plasma at 4.48 mg/kg, iv and measured upto 24 hrs by LC-MS/MS analysis; assay type: ADME, organism-based; design: dose 4.48 mg/kg, time < 24 hrs, route iv
[14] = C0 in Sprague-Dawley rat plasma at 4.48 mg/kg, iv and measured upto 24 hrs by LC-MS/MS analysis; assay type: ADME, organism-based
[15] = AUC (0-t) in Sprague-Dawley rat plasma at 4.48 mg/kg, iv and measured upto 24 hrs by LC-MS/MS analysis; assay type: ADME, organism-based; design: time < 24 hrs, dose 4.48 mg/kg, route iv
[16] = AUC (0-infinity) in Sprague-Dawley rat plasma at 4.48 mg/kg, iv and measured upto 24 hrs by LC-MS/MS analysis; assay type: ADME, organism-based; design: time < 24 hrs, dose 4.48 mg/kg, route iv
[17] = AUMC (0-t) in Sprague-Dawley rat plasma at 4.48 mg/kg, iv and measured upto 24 hrs by LC-MS/MS analysis; assay type: ADME, organism-based; settings: in vivo
[18] = AUMC (0-infinity) in Sprague-Dawley rat plasma at 4.48 mg/kg, iv and measured upto 24 hrs by LC-MS/MS analysis; assay type: ADME, organism-based; settings: in vivo
[19] = Clearance in Sprague-Dawley rat plasma at 4.48 mg/kg, iv and measured upto 24 hrs by LC-MS/MS analysis; assay type: ADME, organism-based
[20] = MRT in Sprague-Dawley rat plasma at 4.48 mg/kg, iv and measured upto 24 hrs by LC-MS/MS analysis; assay type: ADME, organism-based
[21] = Volume of distribution at steady state in Sprague-Dawley rat plasma at 4.48 mg/kg, iv and measured upto 24 hrs by LC-MS/MS analysis; assay type: ADME, organism-based; settings: read-out: Vdss
[22] = Elimination rate constant in Sprague-Dawley rat plasma at 4.48 mg/kg, iv and measured upto 24 hrs in presence of 4-F-Eda by LC-MS/MS analysis; assay type: ADME, organism-based
[23] = Half life in Sprague-Dawley rat plasma at 4.48 mg/kg, iv and measured upto 24 hrs in presence of 4-F-Eda by LC-MS/MS analysis; assay type: ADME, organism-based
[24] = Cmax in Sprague-Dawley rat plasma at 4.48 mg/kg, iv and measured upto 24 hrs in presence of 4-F-Eda by LC-MS/MS analysis; assay type: ADME, organism-based; design: time < 24 hrs, dose 4.48 mg/kg, route iv
[25] = C0 in Sprague-Dawley rat plasma at 4.48 mg/kg, iv and measured upto 24 hrs in presence of 4-F-Eda by LC-MS/MS analysis; assay type: ADME, organism-based
[26] = AUC (0-t) in Sprague-Dawley rat plasma at 4.48 mg/kg, iv and measured upto 24 hrs in presence of 4-F-Eda by LC-MS/MS analysis; assay type: ADME, organism-based; design: time < 24 hrs, dose 4.48 mg/kg, route iv
[27] = AUC (0-infinity) in Sprague-Dawley rat plasma at 4.48 mg/kg, iv and measured upto 24 hrs in presence of 4-F-Eda by LC-MS/MS analysis; assay type: ADME, organism-based; design: dose 4.48 mg/kg, time < 24 hrs, route iv
[28] = AUMC (0-t) in Sprague-Dawley rat plasma at 4.48 mg/kg, iv and measured upto 24 hrs in presence of 4-F-Eda by LC-MS/MS analysis; assay type: ADME, organism-based; settings: in vivo
[29] = AUMC (0-infinity) in Sprague-Dawley rat plasma at 4.48 mg/kg, iv and measured upto 24 hrs in presence of 4-F-Eda by LC-MS/MS analysis; assay type: ADME, organism-based; settings: in vivo
[30] = Clearance in Sprague-Dawley rat plasma at 4.48 mg/kg, iv and measured upto 24 hrs in presence of 4-F-Eda by LC-MS/MS analysis; assay type: ADME, organism-based
[31] = MRT in Sprague-Dawley rat plasma at 4.48 mg/kg, iv and measured upto 24 hrs in presence of 4-F-Eda by LC-MS/MS analysis; assay type: ADME, organism-based
[32] = Volume of distribution at steady state in Sprague-Dawley rat plasma at 4.48 mg/kg, iv and measured upto 24 hrs in presence of 4-F-Eda by LC-MS/MS analysis; assay type: ADME, organism-based; settings: read-out: Vdss
Rattus norvegicus [33] = experiment: Neuroprotective activity against transient middle cerebral artery occlusion induced ischemia stroke Sprague-Dawley rat model assessed as increase in neuro-fucntional score at 5.9 mg/kg, iv and measured after 24 hrs by longa's method; assay type: functional, organism-based
Rattus norvegicus [34] = experiment: Neuroprotective activity against transient middle cerebral artery occlusion induced ischemia stroke Sprague-Dawley rat model assessed as increase in neuro-fucntional score at 5.9 mg/kg, iv and measured after 24 hrs in presence of 4-F-Eda by longa's method; assay type: functional, organism-based
[35] = Toxicity in transient middle cerebral artery occlusion induced ischemia stroke Sprague-Dawley rat model assessed as change in body weight at 5.90 mg/kg, iv and measured after 24 hrs; assay type: organism-based; settings: in vivo, 5.9 mg/kg
[36] = Toxicity in transient middle cerebral artery occlusion induced ischemia stroke Sprague-Dawley rat model assessed as change in body weight at 5.90 mg/kg, iv and measured after 24 hrs in presence of 4-F-Eda; assay type: organism-based; settings: in vivo, 5.9 mg/kg
Rattus norvegicus [37] = experiment: Neuroprotective activity against transient middle cerebral artery occlusion induced cerebral infraction Sprague-Dawley rat model assessed as decrease in cerebral infraction volume at 5.9 mg/kg, iv and measured after 24 hrs by TTC staining based assay; assay type: functional; design: scale not given: the % may be the effect or the level left
Rattus norvegicus [38] = experiment: Neuroprotective activity against transient middle cerebral artery occlusion induced cerebral infraction Sprague-Dawley rat model assessed as decrease in cerebral infraction volume at 5.9 mg/kg, iv and measured after 24 hrs in presence of 4-F-Eda by TTC staining based assay; assay type: functional; design: scale not given: the % may be the effect or the level left
Rattus norvegicus [39] = experiment: Neuroprotective activity against transient middle cerebral artery occlusion induced cerebral infraction Sprague-Dawley rat model assessed as decrease in brain edema at 5.9 mg/kg, iv and measured after 24 hrs in presence of 4-F-Eda; assay type: functional, organism-based

Q: Which results are given for `CCCC[C@@H](OC(C)=O)c1ccccc1C(=O)Oc1cc(C)nn1-c1ccc(F)cc1`?
A: Activity (Rattus norvegicus [1]): Active; Activity [2]: Non-Toxic; Activity (Rattus norvegicus [3]): 67.56%; Activity (Rattus norvegicus [4]): Active

Q: What does the source list for `CCCCC(OC(C)=O)c1ccccc1C(=O)Oc1cc(C)nn1-c1ccc(F)cc1` (racemic)?
A: Activity (Rattus norvegicus [1]): Active; Activity [2]: Non-Toxic; Activity (Rattus norvegicus [3]): 66.89%; Activity (Rattus norvegicus [5]): 52.8%; Activity (Rattus norvegicus [6]): 61.77%

Q: Which Activity (Rattus norvegicus [7]) does the source give for `CCCC[C@@H]1OC(=O)c2ccccc21` [(3S)-BUTYLPHTHALIDE] here?
A: The Activity was “Active”.

Q: And the Activity [8]?
A: The Activity was “Non-Toxic”.

Q: What about the Activity (Rattus norvegicus [9]) of the same molecule?
A: The Activity was 57.7%.

Q: And the Activity (Rattus norvegicus [10])?
A: The Activity was “Active”.

Q: What about the k el at 24 h [11] of the same molecule?
A: The k el at 24 h was 0.000202 s⁻¹.

Q: And the half-life [12]?
A: Its half-life is 0.97 h.

Q: What about the Cmax [13] of the same molecule?
A: Its Cmax is 3290 ng/mL.

Q: What about the C0 at 24 h [14] of the same molecule?
A: The C0 at 24 h was 5310 ng/mL.

Q: And the AUC(0-t) at 24 h [15]?
A: The AUC(0-t) at 24 h was 1470 ng·h/mL.

Q: And the AUC(0-inf) [16]?
A: Its AUC(0-inf) is 1480 ng·h/mL.

Q: And the AUMCt [17]?
A: The AUMCt was 943 hr.hr.ng/ml.

Q: And the AUMC [18]?
A: The AUMC was 998 hr.hr.ng/ml.

Q: And the clearance [19]?
A: The clearance was 51.1 mL/min/kg.

Q: And the MRT [20]?
A: Its MRT is 0.678 h.

Q: And the Vd [21]?
A: Its Vd is 2.08 L/kg.

Q: What about the k el at 24 h [22] of the same molecule?
A: The k el at 24 h was 4.06e-05 s⁻¹.

Q: And the half-life [23]?
A: Its half-life is 5.05 h.

Q: What about the Cmax [24] of the same molecule?
A: The Cmax was 6920 ng/mL.

Q: And the C0 at 24 h [25]?
A: Its C0 at 24 h is 13000 ng/mL.

Q: What about the AUC(0-t) at 24 h [26] of the same molecule?
A: The AUC(0-t) at 24 h was 2840 ng·h/mL.

Q: What about the AUC(0-inf) [27] of the same molecule?
A: Its AUC(0-inf) is 2870 ng·h/mL.

Q: What about the AUMCt [28] of the same molecule?
A: The AUMCt was 3819 hr.hr.ng/ml.

Q: What about the AUMC [29] of the same molecule?
A: The AUMC was 5006 hr.hr.ng/ml.

Q: What about the clearance [30] of the same molecule?
A: The clearance was 26.3 mL/min/kg.

Q: What about the MRT [31] of the same molecule?
A: The MRT was 1.74 h.

Q: And the Vd [32]?
A: The Vd was 2.73 L/kg.

Q: What does the source list for `CCCC[C@H](OC(C)=O)c1ccccc1C(=O)O`?
A: Activity (Rattus norvegicus [33]): Active; Activity (Rattus norvegicus [34]): Active; Activity [35]: Non-Toxic; Activity [36]: Non-Toxic; Activity (Rattus norvegicus [37]): 12.67%; Activity (Rattus norvegicus [38]): 68.37%; Activity (Rattus norvegicus [39]): Active
